# *1 amine or outer side, *2 acyl side, *3 side chain or, on linkers, in order; H or OH if unused. Where a SMILES comes first, the peptide text is derived from it. Bridges are numbered along the chain shown (N, C = ends). TATA = O=C(CC[*:1])N1CN(C(=O)CC[*:2])CN(C(=O)CC[*:3])C1
# Biological target: TSLP (Homo sapiens, UniProt Q969D9)
# Assay: Human TSLP Surface Plasmon Resonance (SPR) binding assay
# Parameters: The resulting construct spCD33-6×HN-TEV-hTSLP(29-159)-Avi; 6xHN tag with TEV site (N, cleaved yes); made in house; host or cells: Expi293F cells
# Conditions: biotinylated human TSLP immobilized on streptavidin chip; 20° C.; steady-state or kinetic 1:1 fit; read-out: hTSLP SPR Kd
# Chain of TSLP (Q969D9 29-159): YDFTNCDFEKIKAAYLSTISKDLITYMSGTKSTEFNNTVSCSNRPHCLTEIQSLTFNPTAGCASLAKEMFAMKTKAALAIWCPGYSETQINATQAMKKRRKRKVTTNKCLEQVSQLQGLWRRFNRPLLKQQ
row,SMILES,Kd
1,"CC(C)C[C@@H]1NC(=O)[C@H](Cc2c[nH]c3ccccc23)NC(=O)[C@H](Cc2c[nH]c3ccccc23)NC(=O)[C@H](CO)NC(=O)[C@H](CO)NC(=O)[C@@H]2CSCCC(=O)N3CN(CN(C3)C(=O)CCSC[C@@H](C(=O)N[C@@H](CCCCN)C(=O)N3CCC[C@H]3C(=O)N[C@@H](CC(=O)O)C(=O)N[C@@H](Cc3c[nH]cn3)C(=O)N[C@H](C(=O)N[C@@H](CC(=O)O)C(=O)N[C@@H](C)C(N)=O)C(C)C)NC1=O)C(=O)CCSC[C@H](NC(=O)[C@H](C)N)C(=O)N[C@@H](CCCNC(=N)N)C(=O)N[C@@H](CC(=O)O)C(=O)N[C@@H](CC(C)C)C(=O)N[C@@H](CC(=O)O)C(=O)N1CCC[C@H]1C(=O)N[C@@H](Cc1c[nH]c3ccccc13)C(=O)N[C@@H]([C@@H](C)O)C(=O)N2 [Example 177, A-(SEQ ID NO: 122)-KPDHVDA]",580 nM
2,"CC(C)C[C@@H]1NC(=O)[C@H](Cc2c[nH]c3ccccc23)NC(=O)[C@@H]2CSCCC(=O)N3CN(CN(C3)C(=O)CCSC[C@H](N)C(=O)N[C@@H](CC(=O)O)C(=O)N[C@@H](Cc3c[nH]c4ccccc34)C(=O)N[C@@H](Cc3c[nH]cn3)C(=O)N[C@@H](Cc3c[nH]c4ccccc34)C(=O)N[C@@H](CCC(=O)O)C(=O)N[C@@H](Cc3ccc(O)cc3)C(=O)N[C@@H](CC(=O)O)C(=O)N2)C(=O)CCSC[C@@H](C(=O)NCC(=O)N[C@@H](C)C(=O)NCC(=O)N[C@@H](CCC(=O)O)C(=O)N[C@@H](CO)C(=O)N[C@@H](CO)C(N)=O)NC(=O)[C@H](CO)NC1=O [Example 228, (SEQ ID NO: 144)-GAGESS]",2300 nM
3,"CC(C)C[C@@H]1NC(=O)[C@H](Cc2c[nH]c3ccccc23)NC(=O)[C@H](Cc2c[nH]c3ccccc23)NC(=O)[C@H]([C@@H](C)O)NC(=O)[C@H](CCC(=O)O)NC(=O)[C@@H]2CSCCC(=O)N3CN(CN(C3)C(=O)CCSC[C@H](N)C(=O)N[C@@H](CCC(N)=O)C(=O)N[C@@H](CCC(=O)O)C(=O)N[C@@H](CC(C)C)C(=O)N[C@@H](CC(=O)O)C(=O)N3CCC[C@H]3C(=O)N[C@@H](Cc3c[nH]c4ccccc34)C(=O)N[C@@H]([C@@H](C)O)C(=O)N2)C(=O)CCSC[C@@H](C(N)=O)NC1=O [Example 181, (SEQ ID NO: 132)] (H-CQELDPWTCETWWLC-NH2; linker 1-9-15 via TATA; N-terminus and C-terminus assumed)",310 nM
4,"CC(C)C[C@@H]1NC(=O)[C@H](Cc2c[nH]c3ccccc23)NC(=O)[C@@H]2CSCCC(=O)N3CN(CN(C3)C(=O)CCSC[C@H](NC(=O)[C@H](CC(=O)O)NC(=O)[C@H](CC(N)=O)NC(=O)[C@H](C)N)C(=O)N[C@@H](C(C)C)C(=O)N[C@@H](Cc3c[nH]c4ccccc34)C(=O)N[C@@H](Cc3c[nH]cn3)C(=O)N[C@@H](Cc3c[nH]c4ccccc34)C(=O)N[C@@H](CCC(=O)O)C(=O)N[C@@H](Cc3ccc(O)cc3)C(=O)N[C@@H](CC(=O)O)C(=O)N2)C(=O)CCSC[C@@H](C(=O)N[C@@H](C)C(N)=O)NC(=O)[C@H](CC(=O)O)NC1=O [Example 220, AND-(SEQ ID NO: 154)-A] (H-ANDCVWHWEYDCWLDCA-NH2; linker 4-12-16 via TATA; N-terminus and C-terminus assumed)",340 nM
5,"CC(C)C[C@@H]1NC(=O)[C@H](Cc2c[nH]c3ccccc23)NC(=O)[C@H](Cc2c[nH]c3ccccc23)NC(=O)[C@H](CO)NC(=O)[C@H](CO)NC(=O)[C@@H]2CSCCC(=O)N3CN(CN(C3)C(=O)CCSC[C@H](NC(=O)[C@H](CCC(N)=O)NC(=O)[C@H](Cc3c[nH]cn3)NC(=O)[C@@H](NC(=O)[C@H](CC(N)=O)NC(=O)[C@@H](NC(=O)[C@@H](N)CCCNC(=N)N)C(C)C)[C@@H](C)O)C(=O)N[C@@H](CCCNC(=N)N)C(=O)N[C@@H](CC(=O)O)C(=O)N[C@@H](CC(C)C)C(=O)N[C@@H](CC(=O)O)C(=O)N3CCC[C@H]3C(=O)N[C@@H](Cc3c[nH]c4ccccc34)C(=O)N[C@@H]([C@@H](C)O)C(=O)N2)C(=O)CCSC[C@@H](C(=O)N[C@@H](C)C(N)=O)NC1=O [Example 190, RVNTHQ-(SEQ ID NO: 122)-A]",81 nM
6,"CC(=O)N[C@H]1CSCCC(=O)N2CN3CN(C2)C(=O)CCSC[C@H](NC(=O)[C@H](CC(=O)O)NC(=O)[C@H](CCC(=O)O)NC(=O)[C@H](CC(C)C)NC(=O)[C@H](Cc2c[nH]c4ccccc24)NC(=O)[C@H](CCC(N)=O)NC1=O)C(=O)N[C@@H](Cc1c[nH]c2ccccc12)C(=O)N[C@@H](CCCNC(=N)N)C(=O)NCC(=O)N[C@@H](Cc1ccncc1)C(=O)N[C@H](C(N)=O)CSCCC3=O [Example 157, Ac-(SEQ ID NO: 115)]",3900 nM
7,"CC(C)C[C@@H]1NC(=O)[C@H](CC(=O)O)NC(=O)[C@H](CCCCN)NC(=O)[C@@H](NC(=O)[C@H](C)N)CSCCC(=O)N2CN3CN(C2)C(=O)CCSC[C@H](NC(=O)[C@H]([C@@H](C)O)NC(=O)[C@H](Cc2c[nH]c4ccccc24)NC(=O)[C@@H]2CCCN2C(=O)[C@H](CC(=O)O)NC1=O)C(=O)N[C@@H](CO)C(=O)N[C@@H](CO)C(=O)N[C@@H](Cc1c[nH]c2ccccc12)C(=O)N[C@@H](Cc1c[nH]c2ccccc12)C(=O)N[C@@H](CCC(=O)O)C(=O)N[C@H](C(=O)N[C@@H](C)C(=O)N1CCC[C@H]1C(=O)N[C@@H](CC(N)=O)C(N)=O)CSCCC3=O [Example 167, A-(SEQ ID NO: 125)-APN] (H-ACKDLDPWTCSSWWECAPN-NH2; linker 2-10-16 via TATA; N-terminus assumed)",170 nM
8,"CC(=O)N[C@H]1CSCCC(=O)N2CN3CN(C2)C(=O)CCSC[C@H](NC(=O)[C@H](CC(=O)O)NC(=O)[C@H](CCC(=O)O)NC(=O)[C@H](CC(C)C)NC(=O)[C@H](Cc2c[nH]c4ccccc24)NC(=O)[C@H](CCC(N)=O)NC1=O)C(=O)N[C@@H](Cc1c[nH]c2ccccc12)C(=O)N[C@@H](CCCNC(=N)N)C(=O)NCC(=O)N[C@@H](Cc1c(F)c(F)c(F)c(F)c1F)C(=O)N[C@H](C(N)=O)CSCCC3=O [Example 153, Ac-(SEQ ID NO: 112)]",2700 nM
9,"CC(=O)N[C@H]1CSCCC(=O)N2CN3CN(C2)C(=O)CCSC[C@H](NC(=O)[C@H](CC(=O)O)NC(=O)[C@H](CCC(=O)O)NC(=O)[C@H](CC(C)C)NC(=O)[C@H](Cc2c[nH]c4ccccc24)NC(=O)[C@H](CCC(N)=O)NC1=O)C(=O)N[C@@H](Cc1c[nH]c2ccccc12)C(=O)N[C@@H](CCCNC(=N)N)C(=O)NCC(=O)N[C@@H](Cc1cccc(Br)c1)C(=O)N[C@H](C(N)=O)CSCCC3=O [Example 143, Ac-(SEQ ID NO: 102)]",750 nM
10,"CC(C)C[C@@H]1NC(=O)[C@H](Cc2c[nH]c3ccccc23)NC(=O)[C@H](Cc2c[nH]c3ccccc23)NC(=O)[C@H](CC(=O)O)NC(=O)[C@@H]2CCCN2C(=O)[C@@H]2CSCCC(=O)N3CN(CN(C3)C(=O)CCSC[C@H](NC(=O)[C@H](CC(C)C)NC(=O)[C@H](CC(=O)O)NC(=O)[C@@H](N)CCCNC(=N)N)C(=O)N[C@@H]([C@@H](C)O)C(=O)N[C@@H](CC(=O)O)C(=O)N[C@@H](CC(C)C)C(=O)N[C@@H](CC(=O)O)C(=O)N3CCC[C@H]3C(=O)N[C@@H](Cc3c[nH]c4ccccc34)C(=O)N[C@@H]([C@@H](C)O)C(=O)N2)C(=O)CCSC[C@@H](C(=O)N[C@@H](C)C(N)=O)NC1=O [Example 189, RDL-(SEQ ID NO: 138)-A] (H-RDLCTDLDPWTCPDWWLCA-NH2; linker 4-12-18 via TATA; N-terminus and C-terminus assumed)",310 nM
11,"CC(=O)N[C@H]1CSCCC(=O)N2CN3CN(C2)C(=O)CCSC[C@H](NC(=O)[C@H](CC(=O)O)NC(=O)[C@H](CCC(=O)O)NC(=O)[C@H](CC(C)C)NC(=O)[C@H](Cc2c[nH]c4ccccc24)NC(=O)[C@H](CCC(N)=O)NC1=O)C(=O)N[C@@H](Cc1c[nH]c2ccccc12)C(=O)N[C@@H](CCCNC(=N)N)C(=O)NCC(=O)N[C@@H](Cc1ccc(C(F)(F)F)cc1)C(=O)N[C@H](C(N)=O)CSCCC3=O [Example 77, Ac-(SEQ ID NO: 58)]",93 nM
12,"CC(C)C[C@@H]1NC(=O)[C@H](Cc2c[nH]c3ccccc23)NC(=O)[C@@H]2CSCCC(=O)N3CN(CN(C3)C(=O)CCSC[C@H](N)C(=O)N[C@@H](CC(=O)O)C(=O)N[C@@H](Cc3c[nH]c4ccccc34)C(=O)N[C@@H](Cc3c[nH]cn3)C(=O)N[C@@H](Cc3c[nH]c4ccccc34)C(=O)N[C@@H](CCC(=O)O)C(=O)N[C@@H](Cc3ccc(O)cc3)C(=O)N[C@@H](CC(=O)O)C(=O)N2)C(=O)CCSC[C@@H](C(=O)N[C@@H](C)C(=O)N[C@@H](CC(N)=O)C(=O)N[C@@H](CO)C(=O)N[C@@H](CCC(=O)O)C(=O)N[C@@H](Cc2ccccc2)C(=O)N[C@@H](CCC(=O)O)C(N)=O)NC(=O)[C@H](CO)NC1=O [Example 227, (SEQ ID NO: 144)-ANSEFE]",740 nM
13,"CC(C)C[C@@H]1NC(=O)[C@H](Cc2c[nH]c3ccccc23)NC(=O)[C@H](CCC(N)=O)NC(=O)[C@@H](NC(=O)CNC(=O)[C@@H](NC(=O)[C@H](CCC(=O)O)NC(=O)[C@H](CC(=O)O)NC(=O)[C@@H](NC(=O)[C@@H](N)CCCNC(=N)N)[C@@H](C)O)[C@@H](C)O)CSCCC(=O)N2CN3CN(C2)C(=O)CCSC[C@H](NC(=O)[C@H](CC(=O)O)NC(=O)[C@H](CCC(=O)O)NC1=O)C(=O)N[C@@H](Cc1c[nH]c2ccccc12)C(=O)N[C@@H](CCCNC(=N)N)C(=O)NCC(=O)N[C@@H](Cc1ccccc1)C(=O)N[C@H](C(=O)N[C@@H](C)C(N)=O)CSCCC3=O [Example 67, RTDETG-(SEQ ID NO: 38)-A]",75 nM
14,"CC(=O)N[C@H]1CSCCC(=O)N2CN3CN(C2)C(=O)CCSC[C@H](NC(=O)[C@H](CC(=O)O)NC(=O)[C@H](CCC(=O)O)NC(=O)[C@H](CC(C)C)NC(=O)[C@H](Cc2c[nH]c4ccccc24)NC(=O)[C@H](CCC(N)=O)NC1=O)C(=O)N[C@@H](Cc1c[nH]c2ccccc12)C(=O)N[C@@H](CCCNC(=N)N)C(=O)NCC(=O)N[C@@H](Cc1ccccc1)C(=O)N[C@H](C(=O)N[C@@H](C)C(=O)N1CCC[C@H]1C(=O)N[C@@H](CC(=O)O)C(=O)N[C@@H](CCC(=O)O)C(=O)N[C@@H](CCCNC(=N)N)C(=O)N[C@@H](CC(=O)O)C(N)=O)CSCCC3=O [Example 54, Ac-(SEQ ID NO: 38)-APDERD]",46 nM

# — US11866518B2, “Bicyclic peptide ligands specific for TSLP” (BicycleTx Limited, priority 2020, dated 2024)
